According to PubChem BioAssay AID1259407 (Chemical Carcinogenesis Research Information System (CCRIS), 2018):
Calls of active or inactive are those of the source. The rule behind the calls is not given here.

Test system: CCRIS mutagenicity, Ames/micronucleus/aberration tests
Assay: CCRIS mutagenicity studies
[1] = Test System: AMES SALMONELLA TYPHIMURIUM, Strain/Indicator: TA98, Metabolic Activation: NONE, Method: STANDARD PLATE
[2] = Test System: AMES SALMONELLA TYPHIMURIUM, Strain/Indicator: TA98, Metabolic Activation: RAT, LIVER, S-9, AROCLOR 1254, Method: STANDARD PLATE
[3] = Test System: AMES SALMONELLA TYPHIMURIUM, Strain/Indicator: TA100, Metabolic Activation: NONE, Method: STANDARD PLATE
[4] = Test System: AMES SALMONELLA TYPHIMURIUM, Strain/Indicator: TA100, Metabolic Activation: RAT, LIVER, S-9, AROCLOR 1254, Method: STANDARD PLATE
[5] = Test System: AMES SALMONELLA TYPHIMURIUM, Strain/Indicator: TA1535, Metabolic Activation: NONE, Method: STANDARD PLATE
[6] = Test System: AMES SALMONELLA TYPHIMURIUM, Strain/Indicator: TA1535, Metabolic Activation: RAT, LIVER, S-9, AROCLOR 1254, Method: STANDARD PLATE
[7] = Test System: AMES SALMONELLA TYPHIMURIUM, Strain/Indicator: TA1537, Metabolic Activation: NONE, Method: STANDARD PLATE
[8] = Test System: AMES SALMONELLA TYPHIMURIUM, Strain/Indicator: TA1537, Metabolic Activation: RAT, LIVER, S-9, AROCLOR 1254, Method: STANDARD PLATE
[9] = Test System: AMES SALMONELLA TYPHIMURIUM, Strain/Indicator: TA1538, Metabolic Activation: NONE, Method: STANDARD PLATE
[10] = Test System: AMES SALMONELLA TYPHIMURIUM, Strain/Indicator: TA1538, Metabolic Activation: RAT, LIVER, S-9, AROCLOR 1254, Method: STANDARD PLATE
[11] = Test System: AMES SALMONELLA TYPHIMURIUM, Strain/Indicator: TA98, Metabolic Activation: NONE, Method: PREINCUBATION
[12] = Test System: AMES SALMONELLA TYPHIMURIUM, Strain/Indicator: TA100, Metabolic Activation: NONE, Method: PREINCUBATION

For `CCC/C=N/O`, which mutagenic call (Test System: AMES SALMONELLA TYPHIMURIUM, Strain/Indicator: TA98, Metabolic Activation: HAMSTER, LIVER, S-9, AROCLOR 1254, Method: STANDARD PLATE) is on record?
The mutagenic call was “inactive; negative”.

And the mutagenic call [1]?
Its mutagenic call is “inactive; negative”.

What about the mutagenic call [2] of the same compound?
Its mutagenic call is “inactive; negative”.

And the mutagenic call (Test System: AMES SALMONELLA TYPHIMURIUM, Strain/Indicator: TA100, Metabolic Activation: HAMSTER, LIVER, S-9, AROCLOR 1254, Method: STANDARD PLATE)?
Its mutagenic call is “inactive; negative”.

What about the mutagenic call [3] of the same compound?
The mutagenic call was “inactive; negative”.

And the mutagenic call [4]?
The mutagenic call was “inactive; negative”.

And the mutagenic call (Test System: AMES SALMONELLA TYPHIMURIUM, Strain/Indicator: TA1535, Metabolic Activation: HAMSTER, LIVER, S-9, AROCLOR 1254, Method: STANDARD PLATE)?
Its mutagenic call is “inactive; negative”.

What about the mutagenic call [5] of the same compound?
Its mutagenic call is “inactive; negative”.

What about the mutagenic call [6] of the same compound?
Its mutagenic call is “inactive; negative”.

And the mutagenic call (Test System: AMES SALMONELLA TYPHIMURIUM, Strain/Indicator: TA1537, Metabolic Activation: HAMSTER, LIVER, S-9, AROCLOR 1254, Method: STANDARD PLATE)?
The mutagenic call was “inactive; negative”.

What about the mutagenic call [7] of the same compound?
Its mutagenic call is “inactive; negative”.

And the mutagenic call [8]?
The mutagenic call was “inactive; negative”.

And the mutagenic call (Test System: AMES SALMONELLA TYPHIMURIUM, Strain/Indicator: TA1538, Metabolic Activation: HAMSTER, LIVER, S-9, AROCLOR 1254, Method: STANDARD PLATE)?
Its mutagenic call is “inactive; negative”.

What about the mutagenic call [9] of the same compound?
The mutagenic call was “inactive; negative”.

What about the mutagenic call [10] of the same compound?
The mutagenic call was “inactive; negative”.

What about the mutagenic call (Test System: MOUSE LYMPHOMA, Strain/Indicator: L5178Y (TK+/TK-), Metabolic Activation: NONE, Method: SUSPENSION/PLATE) of the same compound?
The mutagenic call was “active; positive. reevaluation of results: positive”.

And the mutagenic call (Test System: MOUSE LYMPHOMA, Strain/Indicator: L5178Y (TK+/TK-), Metabolic Activation: RAT, LIVER, S-9, AROCLOR 1254, Method: SUSPENSION/PLATE)?
The mutagenic call was “inactive; negative. reevaluation of results: negative”.

For `CCN(CC)C(=S)SSC[C@H](NC(C)=O)C(=O)O`, which mutagenic call [11] is on record?
Its mutagenic call is “inactive; negative”.

And the mutagenic call [1]?
Its mutagenic call is “inactive; negative”.

And the mutagenic call (Test System: AMES SALMONELLA TYPHIMURIUM, Strain/Indicator: TA98, Metabolic Activation: RAT, LIVER, S-9, AROCLOR 1254, Method: PREINCUBATION)?
The mutagenic call was “inactive; negative”.

What about the mutagenic call [2] of the same compound?
The mutagenic call was “inactive; negative”.

What about the mutagenic call [12] of the same compound?
Its mutagenic call is “inactive; negative”.

What about the mutagenic call [3] of the same compound?
Its mutagenic call is “inactive; negative”.

And the mutagenic call (Test System: AMES SALMONELLA TYPHIMURIUM, Strain/Indicator: TA100, Metabolic Activation: RAT, LIVER, S-9, AROCLOR 1254, Method: PREINCUBATION)?
Its mutagenic call is “inactive; negative”.

And the mutagenic call [4]?
Its mutagenic call is “inactive; negative”.

For `O=[N+]([O-])c1cc(Cl)cc(Cl)c1O`, which mutagenic call [11] is on record?
Its mutagenic call is “inactive; negative”.

What about the mutagenic call [1] of the same compound?
The mutagenic call was “inactive; negative”.

And the mutagenic call [12]?
Its mutagenic call is “inactive; negative”.

What about the mutagenic call [3] of the same compound?
Its mutagenic call is “inactive; negative”.

And the mutagenic call (Test System: CHINESE HAMSTER V-79, Strain/Indicator: V-79/6-THIOGUANINE, Metabolic Activation: NONE)?
Its mutagenic call is “inactive; negative”.

With `C#C[C@]1(O)CC[C@H]2[C@@H]3CCC4=CC(=O)CC[C@@H]4[C@H]3CC[C@@]21CC` as the compound, how does the mutagenic call (End Point: IN VITRO CHROMOSOMAL ABERRATIONS, Test System: HUMAN LYMPHOCYTES, Metabolic Activation: NONE) read?
Its mutagenic call is “active; positive at two higher doses (structural changes)”.

And the mutagenic call (End Point: IN VITRO CHROMOSOMAL ABERRATIONS, Test System: HUMAN LYMPHOCYTES, Metabolic Activation: RAT, LIVER, S-9, PHENOBARBITONE)?
Its mutagenic call is “active; positive at all dose levels (structural changes)”.

What about the mutagenic call (Test System: AMES SALMONELLA TYPHIMURIUM, Strain/Indicator: TA98, Metabolic Activation: MOUSE, LIVER, S-9, Method: STANDARD PLATE) of the same compound?
The mutagenic call was “inactive; negative”.

What about the mutagenic call [1] of the same compound?
Its mutagenic call is “inactive; negative”.

What about the mutagenic call [2] of the same compound?
The mutagenic call was “inactive; negative”.

And the mutagenic call (Test System: AMES SALMONELLA TYPHIMURIUM, Strain/Indicator: TA100, Metabolic Activation: MOUSE, LIVER, S-9, Method: STANDARD PLATE)?
Its mutagenic call is “inactive; negative”.

What about the mutagenic call [3] of the same compound?
Its mutagenic call is “inactive; negative”.

And the mutagenic call [4]?
The mutagenic call was “inactive; negative”.

And the mutagenic call (Test System: AMES SALMONELLA TYPHIMURIUM, Strain/Indicator: TA1535, Metabolic Activation: MOUSE, LIVER, S-9, Method: STANDARD PLATE)?
The mutagenic call was “inactive; negative”.

And the mutagenic call [5]?
Its mutagenic call is “inactive; negative”.

What about the mutagenic call [6] of the same compound?
The mutagenic call was “inactive; negative”.

What about the mutagenic call (Test System: AMES SALMONELLA TYPHIMURIUM, Strain/Indicator: TA1537, Metabolic Activation: MOUSE, LIVER, S-9, Method: STANDARD PLATE) of the same compound?
The mutagenic call was “inactive; negative”.

And the mutagenic call [7]?
Its mutagenic call is “inactive; negative”.

What about the mutagenic call [8] of the same compound?
The mutagenic call was “inactive; negative”.

What about the mutagenic call (Test System: AMES SALMONELLA TYPHIMURIUM, Strain/Indicator: TA1538, Metabolic Activation: MOUSE, LIVER, S-9, Method: STANDARD PLATE) of the same compound?
Its mutagenic call is “inactive; negative”.

What about the mutagenic call [9] of the same compound?
The mutagenic call was “inactive; negative”.

What about the mutagenic call [10] of the same compound?
The mutagenic call was “inactive; negative”.

With `CCN(CC)c1cc(NC(C)=O)c(N=Nc2c(Br)cc([N+](=O)[O-])cc2[N+](=O)[O-])cc1OC` as the compound, how does the mutagenic call [1] read?
The mutagenic call was “active; positive”.

What about the mutagenic call [2] of the same compound?
Its mutagenic call is “active; positive”.

What about the mutagenic call (Test System: AMES SALMONELLA TYPHIMURIUM, Strain/Indicator: TA98DNP6, Metabolic Activation: NONE, Method: STANDARD PLATE) of the same compound?
Its mutagenic call is “inactive; negative”.

And the mutagenic call (Test System: AMES SALMONELLA TYPHIMURIUM, Strain/Indicator: TA98DNP6, Metabolic Activation: RAT, LIVER, S-9, AROCLOR 1254, Method: STANDARD PLATE)?
Its mutagenic call is “active; positive”.

And the mutagenic call (Test System: AMES SALMONELLA TYPHIMURIUM, Strain/Indicator: TA98NR, Metabolic Activation: NONE, Method: STANDARD PLATE)?
The mutagenic call was “inactive; negative”.

And the mutagenic call (Test System: AMES SALMONELLA TYPHIMURIUM, Strain/Indicator: TA98NR, Metabolic Activation: RAT, LIVER, S-9, AROCLOR 1254, Method: STANDARD PLATE)?
Its mutagenic call is “active; positive”.

And the mutagenic call [3]?
Its mutagenic call is “active; positive”.

And the mutagenic call [4]?
Its mutagenic call is “active; positive”.

What about the mutagenic call [5] of the same compound?
The mutagenic call was “inactive; negative”.

What about the mutagenic call [6] of the same compound?
The mutagenic call was “inactive; negative”.

What about the mutagenic call [7] of the same compound?
Its mutagenic call is “active; positive”.

And the mutagenic call [8]?
Its mutagenic call is “active; positive”.

And the mutagenic call [9]?
The mutagenic call was “active; positive”.

What about the mutagenic call [10] of the same compound?
Its mutagenic call is “active; positive”.

And the mutagenic call (Test System: AMES SALMONELLA TYPHIMURIUM, Strain/Indicator: YG1021, Metabolic Activation: NONE, Method: STANDARD PLATE)?
The mutagenic call was “active; positive”.

And the mutagenic call (Test System: AMES SALMONELLA TYPHIMURIUM, Strain/Indicator: YG1021, Metabolic Activation: RAT, LIVER, S-9, AROCLOR 1254, Method: STANDARD PLATE)?
The mutagenic call was “active; positive”.

And the mutagenic call (Test System: AMES SALMONELLA TYPHIMURIUM, Strain/Indicator: YG1024, Metabolic Activation: NONE, Method: STANDARD PLATE)?
The mutagenic call was “active; positive”.

What about the mutagenic call (Test System: AMES SALMONELLA TYPHIMURIUM, Strain/Indicator: YG1024, Metabolic Activation: RAT, LIVER, S-9, AROCLOR 1254, Method: STANDARD PLATE) of the same compound?
Its mutagenic call is “active; positive”.

What about the mutagenic call (Test System: AMES SALMONELLA TYPHIMURIUM, Strain/Indicator: YG1041, Metabolic Activation: NONE, Method: STANDARD PLATE) of the same compound?
The mutagenic call was “active; positive”.

And the mutagenic call (Test System: AMES SALMONELLA TYPHIMURIUM, Strain/Indicator: YG1041, Metabolic Activation: RAT, LIVER, S-9, AROCLOR 1254, Method: STANDARD PLATE)?
Its mutagenic call is “active; positive”.
